According to US20040058983A1, “Plan-derived and synthetic phenolic compounds and plant extracts, effective in the treatment and prevention of chlamydial infections” (priority 2000, published 2004):
Read-outs that look alike come from different tables or passages of the source.

What was measured:
C. pneumoniae = test: Direct anti-chlamydial effect of compounds and mixtures on C. pneumoniae (Example 5); type: cell-based; conditions: for inhibition at 50 µM: Chlamydia pneumoniae
Protocol: Direct Anti-Chlamydial Effect of Plant-Derived Phenolic Compounds, Certain Synthetic Compounds and Mixtures on C. pneumoniae
The concentration used was 50 μM.
The cultivated HL cells are infected with C. pneumoniae EB's. The EB's which have invaded the cell are changed into the metabolically active reticulate body (RB) which are dividing by binary fission in the endosome vacuole or inclusion.
After a certain time (about 72 hr) the C. pneumoniae RB's are condensing back into EB's, after which the inclusions are broken, the host cells are broken and the EB's are liberated. In this method the intention is to verify the inclusions before the breaking up of the host cells.
On the day preceding the infection the host cells are inoculated on a 24-well plate: the cells are harvested by trypsinisation, they are suspended in ca. 5 ml of the nutrition liquid and counted in a Burker's chamber. Each well are seeded using a concentration of 250000-400000 cells/well for cultivation. Before the addition of the cells to the well is if necessary round cover glass (diameter 13 mm) put for staining. Nutrition liquid is added so that the volume is 1 ml/well. On the following day the cells are infected with the desired bacterium.
Solution to be used in the infection and containing chlamydiae particles is mixed throughout. The old nutrition liquid is aspirated away. By the infection the inoculum which has been stored at −70° C. is diluted to an IFU concentration of ca. 10^3 so that the volume of the solution is at least 200 μl/well on a 24-well plate. The cells are infected by centrifuging at 1600 rpm (550×g)/1 hr. The nutrition medium is aspirated away and changed to a maintenance medium containing cyclohexamide and also containing the studied compound (DMSO concentration 0.2%), 1 ml/well. The cells are incubated in a 5% CO2 atmosphere at +35° C. The cells infected with C. pneumoniae are incubated for 3 days. After 2-3 days the maintenance medium is removed and the cells washed with 1×1 ml of PBS. To the wells 200 μl of SPG are added for further infection, harvested with a pipette tip and transferred into tubes. This is used for infecting new cells in the same way as above to test the inhibition of infectivity (chlamydiasidic effect).
The nutrition medium, which is above the cover glass left for staining, is aspirated away. The infected cells are fixed on the cover glass with methanol for 10 min. The cover glass is removed from the well and -transferred onto a suitable fluorescein-conjugated monoclonal antibody on Parafilm in a moist chamber with the cell-containing side down. The cover glass is incubated for 30 min at +37° C. and washed twice with PBS and once with water. Finally it is dried. The cover glass is put with the cell-containing side down on an object glass containing a fixative (e.g. Mounting medium). When viewed under the fluorescent microscope, cell culture specimens infacted with chlamydiae show a characteristic apple-green fluorescence of inclusions against a red counterstained background.

[1] = Antioxidant effect, IC50 against DPPH; type: biochemical; conditions: read-out: IC50 [moles L^−1] against DPPH′
Description: (§1) In the following Table I some of the preferred plant-derived phenolic compounds according to the present invention, the effect of the compounds on the calcium influx to the cell, the antioxidant effect as well as the chemical structure of the compounds are presented.

Ca^2+ intake in the cell = test: Effect of the compounds on the calcium influx (Ca2+ intake) to the cell; type: cell-based; conditions: compound 20 μg/ml; − = decrease, + = increase
Description: as §1

Molecule | inhibition at 50 µM (C. pneumoniae; 50 μM, read-out: Inhibition %) | Inhibition % (C. pneumoniae; 50 μM) | IC50 [1] | further results
Cc1c(-c2ccccc2)c(=O)oc2ccccc12 [4-methyl-3-phenylcoumarin] | 0% |  |  | 
O=c1oc2c3c4c(cc2c2c1CCC2)CCCN4CCC3 [Coumarin 106] |  | 100% |  | 
O=c1c(-c2ccc(O)cc2)coc2cc(O)cc(O)c12 [Genistein] | 60% |  | > 3700 µM | inhibition at 20 µg/mL (Ca^2+ intake in the cell): 54.6%
O=c1c(-c2ccc(O)cc2)coc2cc(O[C@@H]3O[C@H](CO)[C@@H](O)[C@H](O)[C@H]3O)cc(O)c12 [Genistin] | 37% |  |  | inhibition at 20 µg/mL (Ca^2+ intake in the cell): 3.39%
O=c1cc(-c2ccccc2)oc2ccccc12 [Flavone] | 90% |  | > 4500 µM | inhibition at 20 µg/mL (Ca^2+ intake in the cell): 63.5%
O=c1cc(-c2ccc(O)c(O[C@@H]3O[C@H](CO)[C@@H](O)[C@H](O)[C@H]3O)c2)oc2cc(O[C@@H]3O[C@H](CO)[C@@H](O)[C@H](O)[C@H]3O)cc(O)c12 [Luteolin-3′,7-glucoside] |  | 45% |  | Effect on Ca^2+ intake [%] (Ca^2+ intake in the cell): −14.6%
O=c1c(-c2ccc(O)cc2)coc2cc(O)ccc12 [Daidzein] |  | 51% | > 3930 µM | Effect on Ca^2+ intake [%] (Ca^2+ intake in the cell): −26.2%
Oc1cc(O)c2c(c1)O[C@H](c1ccc(O)c(O)c1)[C@H](O)C2 [(−)-Epicatechin] |  | 75% |  | 
Cc1cc(=O)oc2c3c4c(cc12)CCCN4CCC3 [Coumarin 102] |  | 63% |  | 
C=C(C)[C@H]1Cc2c(ccc3c2O[C@@H]2COc4cc(OC)c(OC)cc4[C@@H]2C3=O)O1 [Rotenone] |  |  |  | inhibition at 50 µM (C. pneumoniae): 100%
O=C(O)/C=C/c1ccc(O)c(O)c1 [Caffeic acid] | 78% |  | 21.4 µM | inhibition at 20 µg/mL (Ca^2+ intake in the cell): -9.71%
Oc1cc(O)c2c(c1)O[C@H](c1ccc(O)c(O)c1)[C@H](O)[C@H]2c1c(O)cc(O)c2c1O[C@H](c1ccc(O)c(O)c1)[C@H](O)C2 [Procyanidin B2] |  | 0% |  | 
COc1cc(-c2oc3cc(O)cc(O)c3c(=O)c2O)ccc1O [Isorhamnetin] |  | 70% | 18.1 µM | Effect on Ca^2+ intake [%] (Ca^2+ intake in the cell): +52.4%
O=c1ccc2ccc(O)cc2o1 [Umbelliferone] | 75% |  |  | 
O=c1cc(-c2ccc(O)c(O)c2)oc2cc(O)cc(O)c12 [Luteolin] | 100% |  | 12 µM | inhibition at 20 µg/mL (Ca^2+ intake in the cell): 51.4%
O=C(O[C@@H]1Cc2c(O)cc(O)cc2O[C@@H]1c1ccc(O)c(O)c1)c1cc(O)c(O)c(O)c1 [(−)-Epicatechin gallate] |  | 85% |  | 
CCN(CC)c1ccc2cc(-c3nc4ccccc4n3C)c(=O)oc2c1 [Coumarin 30] |  | 50% |  | 
CCCOC(=O)c1cc(O)c(O)c(O)c1 [Propyl Gallate] | 100% |  | 13.3 µM | inhibition at 20 µg/mL (Ca^2+ intake in the cell): 37.9%
O=C1C[C@@H](c2ccc(O)cc2)Oc2cc(O)cc(O)c21 [Naringenin] | 16% |  | > 3670 µM | inhibition at 20 µg/mL (Ca^2+ intake in the cell): 56.3%
Cc1ccc2oc(=O)ccc2c1 [6-methylcoumarin] | 71% |  |  | 
O=c1cc(-c2ccc(O)cc2)oc2cc(O)cc(O)c12 [Apigenin] | 100% |  | > 3700 µM | inhibition at 20 µg/mL (Ca^2+ intake in the cell): 29.3%
COc1ccc(-c2cc(=O)c3c(O)cc(O)cc3o2)cc1 [Acacetin] |  |  | > 3520 µM | Effect on Ca^2+ intake [%] (Ca^2+ intake in the cell): −1.39%
Oc1cc(O)c2c(c1)O[C@H](c1ccc(O)c(O)c1)[C@@H](O)C2 [(+)-Catechin] |  | 76% |  | 
O=c1c(-c2ccc(O)cc2)coc2cc(O[C@@H]3O[C@H](CO)[C@@H](O)[C@H](O)[C@H]3O)ccc12 [Daidzin] |  | 0% |  | Effect on Ca^2+ intake [%] (Ca^2+ intake in the cell): +7.6%

Molecule | inhibition at 50 µM (C. pneumoniae; 50 μM, read-out: Inhibition %) | Inhibition % (C. pneumoniae; 50 μM) | IC50 [1] | further results
COc1cc(C(=O)O)cc(OC)c1O [Syringic acid] | 32% |  | 32.6 µM | inhibition at 20 µg/mL (Ca^2+ intake in the cell): 10.9%
O=C(O)c1cc2cc(Br)cc(Br)c2oc1=O [6,8-dibromocoumarin-3-carboxylic acid] | 0% |  |  | 
COc1c2occc2cc2ccc(=O)oc12 [Xanthotoxin] |  | 94% |  | 
COC(=O)c1cc(O)c(O)c(O)c1 [Methyl gallate] | 100% |  | 5.09 µM | 
COc1ccc2oc(-c3ccccc3OC)cc(=O)c2c1 [6,2′-dimethoxyflavone] | 73% |  |  | 
O=C(c1ccccc1)c1cc2c(ccc3ccccc32)oc1=O [3-benzoylbenzo(F)coumarin] |  | 62% |  | 
O=C(O)c1ccccc1 [Benzoic acid] |  | 44% | > 8190 µM | Effect on Ca^2+ intake [%] (Ca^2+ intake in the cell): −9.82%
O=c1cc(-c2ccccc2)oc2c1ccc1ccccc12 [Alpha-naphtoflavone] |  | 92% |  | 
COc1cc(/C=C/C(=O)O)ccc1O [Ferulic acid] | 14% |  | 44.3 µM | inhibition at 20 µg/mL (Ca^2+ intake in the cell): -9.23%
O=c1cc(-c2ccc(O)cc2)oc2c([C@@H]3O[C@H](CO)[C@@H](O)[C@H](O)[C@H]3O)c(O)cc(O)c12 [Vitexin] |  | 3% |  | Effect on Ca^2+ intake [%] (Ca^2+ intake in the cell): −2.12%
CCCCCCCCCCCCOC(=O)c1cc(O)c(O)c(O)c1 [Dodecyl gallate] | 100% |  | 15.4 µM | inhibition at 20 µg/mL (Ca^2+ intake in the cell): 40.4%
Oc1cc(O)c2c(c1)O[C@H](c1cc(O)c(O)c(O)c1)[C@H](O)C2 [(−)-Epigallocatechin] |  | 58% |  | 
Methoxy psoralen |  | 100% |  | 
C[C@@H]1O[C@@H](O[C@H]2[C@H](Oc3cc(O)c4c(c3)O[C@H](c3ccc(O)cc3)CC4=O)O[C@H](CO)[C@@H](O)[C@@H]2O)[C@H](O)[C@H](O)[C@H]1O [Naringin] |  | 66% |  | Effect on Ca^2+ intake [%] (Ca^2+ intake in the cell): +6.5%
O=c1oc2cc(O)ccc2cc1-c1nc2ccccc2o1 [3-(2-benzoxazoyl)umbelliferone] |  | 28% |  | 
Oc1ccc(/C=C/c2cc(O)cc(O)c2)cc1 [Resveratrole] |  | 54% |  | 
Oc1cc(O)c2c(c1)O[C@H](c1ccc(O)c(O)c1)[C@H](O)[C@H]2c1c(O)cc(O)c2c1O[C@H](c1ccc(O)c(O)c1)[C@@H](O)C2 [Procyanidin B1] |  | 30% |  | 
O=c1ccc2ccccc2o1 [Coumarin] | 28% |  |  | 
CCN(CC)c1ccc2cc(C(=O)c3cccs3)c(=O)oc2c1 [7-diethylamino-3-thenoylcoumarin] |  | 100% |  | 
C[C@@H]1O[C@@H](O[C@@H]2[C@@H](O)[C@H](O)[C@@H](CO)O[C@H]2c2c(O)cc(O)c3c(=O)cc(-c4ccc(O)cc4)oc23)[C@H](O)[C@H](O)[C@H]1O [Vitexin-2″-O-rhamnoside] |  | 11% |  | Effect on Ca^2+ intake [%] (Ca^2+ intake in the cell): −14.6%
O=C(O)c1cc(O)c(O)c(O)c1 [Gallic acid] | 27% |  | 21.5 µM | inhibition at 20 µg/mL (Ca^2+ intake in the cell): 5.33%
COc1cc2ccc(=O)oc2cc1O [Scopoletin] | 96% |  |  | 
CC(=O)CC(c1ccccc1)c1c(O)c2ccccc2oc1=O (stereo not drawn) [3-(α-acetonylbenzyl)-4-hydroxycoumarin] | 0% |  |  | 
COc1ccccc1-c1cc(=O)c2ccc3ccccc3c2o1 [2′-methoxy-α-naphtoflavone] |  | 100% |  | 
